In brackets after ≈: the same amount, converted by molar mass.
Legend:
[1] = tested on: HCMV recombinant mutant virus (RV145); experiment: HCMV microtiter plate assay (beta-glucuronidase reporter); assay type: cell-based, Human Cytomegalovirus; conditions: for IC50: Human betaherpesvirus 5, Fibroblast, read-out: IC50 (ug/ml) HCMV; for IC50 (ug/ml) HCMV: HCMV in human foreskin fibroblasts
Outline: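 Replication was read out as virus-encoded β-glucuronidase activity, measured with a chromogenic or fluorogenic glucuronide substrate in cell lysates at 96 h post-infection. Infection of human foreskin fibroblasts with RV145 took place with compound present. IC50 was derived from a range of inhibitor amounts.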

HSV-1 = experiment: HSV Antiviral (ELISA) assay; assay type: cell-based; conditions: for IC50: Human alphaherpesvirus 1, HSV-1 in Vero cells, read-out: IC50 (ug/ml) HSV; for IC50 (ug/ml) HSV: HSV-1 in Vero cells
Outline: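 Replication measured as glycoprotein D signal in fixed cells: anti-gD antibody plus β-galactosidase-linked secondary, fluorogenic substrate read at 365/450 nm. Vero cells (2% FBS DMEM) received compound 30 min pre-infection, HSV-1 MOI 0.006, ~24 h incubation; IC50 relative to no-compound fluorescence.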

VZV strain Ellen = experiment: VZV Antiviral (ELISA) assay; assay type: cell-based; conditions: for IC50: Human alphaherpesvirus 3, VZV strain Ellen in HFF cells, read-out: IC50 (ug/ml) VZV; for IC50 (ug/ml) VZV / % inhibition 10 ug/ml VZV: VZV strain Ellen in HFF cells; for % inhibition 10 ug/ml VZV: at 10 ug/ml; for inhibition at 10 µg/mL: Human alphaherpesvirus 3, read-out: % inhibition 10 ug/ml VZV, at 10 ug/ml, VZV strain Ellen in HFF cells
Outline: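 HFF cells infected with VZV Ellen at low multiplicity (<0.1) overnight were seeded at 3.5×10^4 cells/well in DMEM with 2% FBS plus compound and incubated three days at 37° C., 5% CO2. Viral replication was read by ELISA against glycoprotein II with β-galactosidase fluorogenic readout (ex 365/em 450 nm); IC50 relative to no-compound fluorescence.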

| SMILES | IC50 [1] | IC50 (HSV-1) | IC50 (VZV strain Ellen) | IC50 (ug/ml) HCMV [1] | IC50 (ug/ml) HSV (HSV-1) | IC50 (ug/ml) VZV (VZV strain Ellen) | % inhibition 10 ug/ml VZV (VZV strain Ellen) | inhibition at 10 µg/mL (VZV strain Ellen) |
| --- | --- | --- | --- | --- | --- | --- | --- | --- |
| CC(C)c1nc(C(=O)Nc2ccc(NC(=S)Nc3ccc(Cl)c(C(F)(F)F)c3)cc2)cs1 [Example 1130, 2-Isopropyl-thiazole-4-carboxylic acid {4-[3-(4-chloro-3-trifluoromethyl-phenyl)-thioureido]-phenyl}-amide] | 2 µg/mL (≈ 4.01 µM) | 2 µg/mL (≈ 4.01 µM) | 5.5 µg/mL (≈ 11 µM) |  |  |  |  |  |
| COc1cc(OC)c(NC(=S)Nc2ccc(NC(=O)c3cncc4ccccc34)cc2)cc1Cl [Example 172] |  |  |  | >10 µg/mL | >10 µg/mL | >10 µg/mL | 25% |  |
| O=C(CN1CCCCC1)Nc1ccc(NC(=S)Nc2ccc(NC(=O)c3ccco3)cc2)cc1Cl [Example 365] |  |  |  | 0.035 µg/mL (≈ 0.0684 µM) | 10 µg/mL (≈ 19.5 µM) | 5 µg/mL (≈ 9.76 µM) | 75% |  |
| CCCN(CCC)CC(=O)Nc1ccc(NC(=S)Nc2ccc(NC(=O)c3ccco3)cc2)cc1Cl [Example 411] |  |  |  | 0.024 µg/mL (≈ 0.0454 µM) | 8 µg/mL (≈ 15.1 µM) | 2 µg/mL (≈ 3.79 µM) | 99% |  |
| O=C(Nc1ccc(NC(=S)Nc2ccc3scnc3c2)cc1)c1ccco1 [Example 482] |  |  |  | 0.3 µg/mL (≈ 0.76 µM) | 9 µg/mL (≈ 22.8 µM) | >10 µg/mL | 33% |  |
| COc1cc(C)c(Cl)cc1NC(=S)Nc1ccc(NC(=O)c2ccco2)cc1 [Example 353] |  |  |  | 0.04 µg/mL (≈ 0.0962 µM) | 0.6 µg/mL (≈ 1.44 µM) | 7 µg/mL (≈ 16.8 µM) | 86% |  |
| CC(O)c1cccc(NC(=S)Nc2ccc(NC(=O)c3csnn3)cc2)c1 (stereo not shown) [Example 464] |  |  |  | 0.15 µg/mL (≈ 0.375 µM) | >10 µg/mL | >10 µg/mL | 25% |  |
| COc1cc(NC(=S)Nc2ccc(NC(=O)c3csnn3)cc2)cc(OC)c1 [Example 468] |  |  |  | 0.06 µg/mL (≈ 0.144 µM) | >10 µg/mL | >10 µg/mL | 50% |  |
| Cc1cc(NC(=S)NC(C)c2ccc(F)cc2)ccc1NC(=O)c1cc2ccccc2cn1 (stereo not shown) [Example 1126, Isoquinoline-3-carboxylic acid (4-{3-[1-(4-fluoro-phenyl)-ethyl]-thioureido}-2-methyl-phenyl)-amide] | 5.8 µg/mL (≈ 12.6 µM) | > 10 µg/mL | 0.7 µg/mL (≈ 1.53 µM) |  |  |  |  |  |
| O=C(Nc1ccc(NC(=S)Nc2cccc(OC(F)(F)F)c2)cc1)c1ccccc1F [Example 1011, 2-Fluoro-N-{4-[3-(3-trifluoromethoxy-phenyl)-thioureido]-phenyl} -benzamide] | 0.039 µg/mL (≈ 0.0868 µM) | > 10 µg/mL |  |  |  |  |  | 20% |
| Nc1ccc(NC(=S)Nc2ccc(NC(=O)c3ccco3)cc2)cc1Cl [Example 421] |  |  |  | 0.75 µg/mL (≈ 1.94 µM) | 8 µg/mL (≈ 20.7 µM) | >10 µg/mL |  |  |
| CS(=O)(=O)Nc1ccc(NC(=S)Nc2ccc(NC(=O)c3ccco3)cc2)cc1Cl [Example 371] |  |  |  | >10 µg/mL | >10 µg/mL | >10 µg/mL | 45% |  |
| CC(C)(C)c1cccc(NC(=S)Nc2ccc(NC(=O)c3csnn3)cc2)c1 [Example 509] |  |  |  | 0.03 µg/mL (≈ 0.0729 µM) | >10 µg/mL | >10 µg/mL | 31% |  |
| COc1cc(OC)c(NC(=S)Nc2ccc(NC(=O)c3occc3C)cc2)cc1Cl [Example 167] |  |  |  | 9 µg/mL (≈ 20.2 µM) | 10 µg/mL (≈ 22.4 µM) | 3.8 µg/mL (≈ 8.52 µM) | 70% |  |
| C[C@H](NC(=S)Nc1ccc(NC(=O)c2cscn2)nc1)c1cc(C(F)(F)F)cc(C(F)(F)F)c1 [Example 91] |  |  |  | 0.018 µg/mL (≈ 0.0346 µM) | >10 µg/mL | >10 µg/mL | 6% |  |
| O=C(Nc1ccc(NC(=S)Nc2cc(N3CCCCC3)cc(C(F)(F)F)c2)cc1)c1csnn1 [Example 535] |  |  |  | 0.016 µg/mL (≈ 0.0316 µM) | >10 µg/mL | >10 µg/mL |  |  |
| Cc1ccc(NC(=S)Nc2ccc(NC(=O)c3ccccn3)cc2)cc1Cl [Example 236] |  |  |  | 0.7 µg/mL (≈ 1.76 µM) | >10 µg/mL | >10 µg/mL | 40% |  |
| O=C(Nc1ccc(NC(=S)Nc2ccccc2)cc1)c1csnn1 [Example 912, [1,2,3]Thiadiazole-4-carboxylic acid [4-(3-phenyl-thioureido)-phenyl]-amide] | 0.16 µg/mL (≈ 0.45 µM) | > 10 µg/mL | > 10 µg/mL |  |  |  |  | 0% |

| SMILES | IC50 [1] | IC50 (HSV-1) | IC50 (VZV strain Ellen) | IC50 (ug/ml) HCMV [1] | IC50 (ug/ml) HSV (HSV-1) | IC50 (ug/ml) VZV (VZV strain Ellen) | % inhibition 10 ug/ml VZV (VZV strain Ellen) | inhibition at 10 µg/mL (VZV strain Ellen) |
| --- | --- | --- | --- | --- | --- | --- | --- | --- |
| COc1cc(OC)c(NC(=S)Nc2ccc(NC(=O)c3ccc(Br)o3)cc2)cc1Cl [Example 168] |  |  |  | 2.5 µg/mL (≈ 4.89 µM) | 3 µg/mL (≈ 5.87 µM) | >10 µg/mL |  |  |
| CC(C)c1nc(C(=O)Nc2ccc(NC(=S)Nc3ccc(Cl)c(Cl)c3)cc2)cs1 [Example 1132, 2-Isopropyl-thiazole-4-carboxylic acid {4-[3-(3,4-dichloro-phenyl)-thioureido]-phenyl}-amide] | 1.2 µg/mL (≈ 2.58 µM) | 2.6 µg/mL (≈ 5.59 µM) | 3.9 µg/mL (≈ 8.38 µM) |  |  |  |  |  |
| COc1cc(OC)c(NC(=S)Nc2ccc(NC(=O)c3cc(Br)co3)cc2)cc1Cl [Example 169] |  |  |  | 4 µg/mL (≈ 7.83 µM) | 3 µg/mL (≈ 5.87 µM) | >10 µg/mL | 26% |  |
| O=C(Nc1ccc(NC(=O)c2ccco2)cc1)Nc1cc(C(F)(F)F)cc(C(F)(F)F)c1 [Example 88, Furan-2-carboxylic acid {4-[3-(3,5-bis-trifluoromethyl-phenyl)-ureido]-phenyl}-amide] | 0.013 µg/mL (≈ 0.0284 µM) | > 10 µg/mL | 0.03 µg/mL (≈ 0.0656 µM) |  |  |  |  |  |
| Cc1nc(C(=O)Nc2ccc(NC(=S)Nc3cc(C(F)(F)F)cc(C(F)(F)F)c3)cc2)cs1 [Example 1140, 2-Methyl-thiazole-4-carboxylic acid {4-[3-(3,5-bis-trifluoromethyl-phenyl)-thioureido]-phenyl}-amide] | 1.6 µg/mL (≈ 3.17 µM) | 3.5 µg/mL (≈ 6.94 µM) | 4 µg/mL (≈ 7.93 µM) |  |  |  |  |  |
| COc1cc(OC)c(NC(=S)Nc2ccc(NC(=O)c3ccoc3)cc2)cc1Cl [Example 166] |  |  |  | >10 µg/mL | 9 µg/mL (≈ 20.8 µM) | >10 µg/mL | 30% |  |
| O=C(Nc1ccc(NC(=S)NCCc2cccc(Cl)c2)cc1)c1ccco1 [Example 564] |  |  |  | 0.027 µg/mL (≈ 0.0675 µM) | >10 µg/mL | 5 µg/mL (≈ 12.5 µM) |  |  |
| NC(=O)c1cccc(NC(=S)Nc2ccc(NC(=O)c3csnn3)cc2)c1 [Example 1005, [1,2,3]Thiadiazole-4-carboxylic acid {4-[3-(3-carbamoyl-phenyl)-thioureido]-phenyl}-amide] | 2 µg/mL (≈ 5.02 µM) | > 10 µg/mL | > 10 µg/mL |  |  |  |  | 16% |
| CC(C)c1cccc(NC(=S)Nc2ccc(NC(=O)c3csnn3)cc2)c1 [Example 450] |  |  |  | 0.05 µg/mL (≈ 0.126 µM) | >10 µg/mL | >10 µg/mL |  |  |
| COC(=O)c1cc(NC(=S)Nc2ccc(NC(=O)c3csnn3)cc2)cc(C(=O)OC)c1 [Example 485] |  |  |  | 0.03 µg/mL (≈ 0.0636 µM) | >10 µg/mL | >10 µg/mL | 11% |  |
| COc1cc(OC)c(NC(=S)Nc2ccc(NC(=O)c3ccc(C)s3)cc2)cc1Cl [Example 145] |  |  |  | >10 µg/mL | 2 µg/mL (≈ 4.33 µM) | >15 µg/mL | 51% |  |
| O=C(CN1CCCCC1)Nc1ccc(NC(=S)Nc2ccc(NC(=O)c3csnn3)cc2)cc1Cl [Example 391] |  |  |  | 0.019 µg/mL (≈ 0.0358 µM) | 8 µg/mL (≈ 15.1 µM) | 6 µg/mL (≈ 11.3 µM) | 97% |  |
| CCC(C)Cc1cc(NC(=S)Nc2ccc(NC(=O)c3csnn3)cc2)cc(C(F)(F)F)c1 (stereo not shown) [Example 556] |  |  |  | 0.006 µg/mL (≈ 0.0122 µM) | >10 µg/mL | >7.5 µg/mL |  |  |
| CN1CCC(N(C)c2ccc(NC(=S)Nc3ccc(NC(=O)c4ccccn4)cc3)cc2Cl)CC1 [Example 376] |  |  |  | 0.8 µg/mL (≈ 1.57 µM) | 3 µg/mL (≈ 5.89 µM) | 7 µg/mL (≈ 13.8 µM) | 83% |  |
| O=C(Nc1ccc(NC(=S)Nc2ccc(NC(=O)c3ccco3)cc2)cc1Cl)OCCN1CCCCC1 [Example 439] |  |  |  | 0.5 µg/mL (≈ 0.922 µM) | 9 µg/mL (≈ 16.6 µM) | >10 µg/mL | 46% |  |
| COc1cc(OC)c(NC(=S)Nc2ccc(NC(=O)c3c[nH]nn3)cc2)cc1Cl [Example 174] |  |  |  | 6 µg/mL (≈ 13.9 µM) | 50 µg/mL (≈ 116 µM) | >10 µg/mL | 8% |  |
| O=C(Nc1ccc(NC(=S)NCc2ccc(N3CCCCC3)c(C(F)(F)F)c2)cc1)c1csnn1 [Example 601] |  |  |  | 0.0011 µg/mL (≈ 0.00211 µM) | >10 µg/mL | >10 µg/mL |  |  |
